Assay [1] deals with LNCaP. Nature of the assay: Cell cycle arrest in human LNCAP cells assessed as accumulation at S phase at 100 uM after 96 hrs by propidium iodide staining-based FACS flow cytometric analysis (reference value: 15.6 +/- 1.3 %). The format is functional. (In general: Flow cytometry measures light scatter and fluorescence of single cells or particles in a stream.)
The subject of assay [2] is LNCaP. Nature of the assay: Cell cycle arrest in human LNCAP cells assessed as decrease in accumulation at S phase after 96 hrs by propidium iodide staining-based FACS flow cytometric analysis. The class given is functional.
Assay [3] deals with LNCaP. As to the kind of experiment: Cell cycle arrest in human LNCAP cells assessed as accumulation at G0/G1 phase after 96 hrs by propidium iodide staining-based FACS flow cytometric analysis.
Assay [4] concerns LNCaP. Nature of the assay: Cell cycle arrest in human LNCAP cells assessed as accumulation at sub G1 phase at 200 uM after 96 hrs by propidium iodide staining-based FACS flow cytometric analysis (reference value: 0.3 +/- 0.2 %). The format is functional.
Assay [5] deals with LNCaP. Nature of the assay: Cell cycle arrest in human LNCAP cells assessed as accumulation at S phase at 200 uM after 96 hrs by propidium iodide staining-based FACS flow cytometric analysis (reference value: 15.6 +/- 1.3 %). The format is functional.
Assay [6] concerns LNCaP. As to the kind of experiment: Cell cycle arrest in human LNCAP cells assessed as accumulation at G2/M phase at 200 uM after 96 hrs by propidium iodide staining-based FACS flow cytometric analysis (reference value: 10.1 +/- […]). The class given is functional.

For the compound `CC(=O)N[C@H](CC(C)C)C(=O)N[C@@H](CC(C)C)C(=O)N[C@@H](CC(C)C)C(=O)N[C@@H](CC(C)C)C(=O)N[C@@H](CCCNC(=N)N)C(=O)N[C@H](C(=O)N[C@@H](CCCCN)C(=O)N[C@@H](CCCNC(=N)N)C(N)=O)C(C)C`, the Activity in assay [1] is 11.8%; in assay [2], “Dose-dependent effect”; in assay [3] it was “Dose-dependent effect”; in assay [4], 11.8%; in assay [5] it was 8.4%; in assay [6] it was 8.3%.

The values above are taken from ChEMBL document CHEMBL2176991 (J Med Chem, 2012).
